The source of these data is publication PMC9234962, “Optimization of Peptide Linker-Based Fluorescent Ligands for the Histamine H1 Receptor” (Journal of Medicinal Chemistry, 2022).

SMILES strings stand for the structures. Square brackets hold non-standard residues; d marks the D form. Side chains are listed from the residue outwards. Peptide text beside a SMILES is read from it. * marks the point of attachment. X1 = O=C(COc1ccc(/C=C/C2=[N+]3C(=Cc4ccc(-c5cccs5)n4[B-]3(F)F)C=C2)cc1)*; Propanoyl(3-Pip(4-O-2-BnPh)) = O=C(CCN1CCC(Oc2ccccc2Cc2ccccc2)CC1)*; BODIPY(FL) = CC1=CC(C)=[N+]2C1=Cc1ccc(CCC(=O)*)n1[B-]2(F)F; Ahx = NCCCCCC(=O)O; βAla = NCCC(=O)O

One may read the Kd as the free concentration of one partner at which half of the binding sites on the other are occupied at equilibrium, for simple one-to-one binding. A lower Kd goes with a tighter complex. A word on the pKD: it is the negative decadic logarithm of the KD, by convention in mol/L. High values mean a small KD, low ones a large KD. As a reminder, the Ki is a dissociation constant, usually derived from enzyme kinetics or from competition with a known ligand. Read a low Ki as a stronger hold on the target. By pKi is commonly meant −log10 of the Ki, conventionally taken in molar units.

Assay [1] deals with T1, Nluc-H1R (Homo sapiens, UniProt P35367). Put plainly: NanoBRET saturation binding assay on Nluc-H1R expressing HEK293T cells. The conditions noted are these: saturation binding curves, whole HEK293T cells; for pKD: non-specific with 10 μM mepyramine, mean ± SEM. The arrangement: expressed in transfected cells. The text has this:
Total and non-specific saturation binding curves from NanoBRET saturation binding assay were fitted simultaneously using eq 1: [drawing 4] 1 where Bmax is the maximal specific binding, [B] is the concentration of fluorescent ligand in nM, KD is the equilibrium dissociation constant in nM, M is the slope of the non-specific component, and C is the intercept with the Y axis.
A general note: Bioluminescence resonance energy transfer reports proximity on the nanometre scale.

The target of assay [2] is T1, Nluc-H1R. Put plainly: NanoBRET competition binding assay (displacement of 1) on Nluc-H1R expressing HEK293T cells. The note with it: displacement of 1 (25 nM, KD = 8 nM), whole HEK293T cells, Cheng–Prusoff; for pKi: mean ± SEM, three experiments.

T1 sequence (P35367 whole entry): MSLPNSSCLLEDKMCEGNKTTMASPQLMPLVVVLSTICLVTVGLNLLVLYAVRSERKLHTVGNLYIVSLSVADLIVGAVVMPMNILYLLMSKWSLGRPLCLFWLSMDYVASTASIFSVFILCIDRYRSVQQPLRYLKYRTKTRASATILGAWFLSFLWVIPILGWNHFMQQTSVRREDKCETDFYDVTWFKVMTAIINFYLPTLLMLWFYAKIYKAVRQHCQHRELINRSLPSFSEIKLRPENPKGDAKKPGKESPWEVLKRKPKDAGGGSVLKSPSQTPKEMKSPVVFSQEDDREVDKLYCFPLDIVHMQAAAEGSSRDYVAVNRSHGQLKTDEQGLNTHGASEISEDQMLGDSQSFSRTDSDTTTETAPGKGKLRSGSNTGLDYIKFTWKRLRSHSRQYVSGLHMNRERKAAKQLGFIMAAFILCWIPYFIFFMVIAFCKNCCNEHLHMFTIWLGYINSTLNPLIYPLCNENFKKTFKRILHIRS

In assay [1], `Cc1cc(C)n2c1C=C1C=CC(CCC(=O)NCCCCCC(=O)NCCCC[C@H](NC(=O)CCNC(=O)[C@H](CC(N)=O)NC(=O)[C@H](CO)NC(=O)[C@@H](NC(=O)CCN3CCC(Oc4ccccc4Cc4ccccc4)CC3)C(C)C)C(N)=O)=[N+]1[B-]2(F)F` [Compound 38e, (S)-N^1-(3-(((S)-1-Amino-6-(6-(3-(5,5-difluoro-7,9-dimethyl-5H-4λ^4,5λ^4-dipyrrolo[1,2-c:2’,1’-f][1,3,2]diazaborinin-3-yl)propanamido)hexanamido)-1-oxohexan-2-yl)amino)-3-oxopropyl)-2-((S)-2-((S)-2-(3-(4-(2-benzylphenoxy)piperidin-1-yl)propanamido)-3-methylbutanamido)-3-hydroxypropanamido)succinamide] ({Propanoyl(3-Pip(4-O-2-BnPh))}-VSN[βAla]K([Ahx-BODIPY(FL)])-NH2) registered a Kd of 5250 nM and a pKD of 5.28 ± 0.06.
With `C[C@H](NC(=O)CCN(C)CC/C=C1\c2ccccc2COc2ccccc21)C(=O)N[C@@H](C)C(=O)N[C@@H](C)C(=O)NCCC(=O)N[C@@H](CCCn1cc(COc2ccc(/C=C/C3=[N+]4C(=Cc5ccc(-c6cccs6)n5[B-]4(F)F)C=C3)cc2)nn1)C(N)=O` [Compound 28d], in assay [1], the Kd is 5 nM and the pKD is 8.27 ± 0.05.
For `C[C@H](NC(=O)[C@H](C)NC(=O)[C@H](Cc1ccccc1)NC(=O)CCN1CCC(Oc2ccccc2Cc2ccccc2)CC1)C(=O)NCCC(=O)N[C@@H](CCCCNC(=O)CCCCCNC(=O)COc1ccc(/C=C/C2=[N+]3C(=Cc4ccc(-c5cccs5)n4[B-]3(F)F)C=C2)cc1)C(N)=O` [Compound 39a, N-((5S,8S,11S,18S)-5-Benzyl-1-(4-(2-benzylphenoxy)piperidin-1-yl)-18-carbamoyl-8,11-dimethyl-3,6,9,12,16-pentaoxo-4,7,10,13,17-pentaazadocosan-22-yl)-6-(2-(4-((E)-2-(5,5-difluoro-7-(thiophen-2-yl)-5H-4λ^4,5λ^4-dipyrrolo[1,2-c:2’,1’-f][1,3,2]diazaborinin-3-yl)vinyl)phenoxy)acetamido)hexanamide] ({Propanoyl(3-Pip(4-O-2-BnPh))}-FAA[βAla]K([Ahx-X1])-NH2), in that order: 10 nM and 7.98 ± 0.01.
For `CC[C@H](C)[C@H](NC(=O)CCN1CCC(Oc2ccccc2Cc2ccccc2)CC1)C(=O)N[C@@H](CO)C(=O)N[C@@H](CC(N)=O)C(=O)NCCC(=O)N[C@@H](CCCCNC(=O)COc1ccc(/C=C/C2=[N+]3C(=Cc4ccc(-c5cccs5)n4[B-]3(F)F)C=C2)cc1)C(N)=O` [Compound 31i, (S)-N1-(3-(((S)-1-Amino-6-(2-(4-((E)-2-(5,5-difluoro-7-(thiophen-2-yl)-5H-5λ^4,6λ^4-dipyrrolo[1,2-c:2’,1’-f][1,3,2]diazaborinin-3-yl)vinyl)phenoxy)acetamido)-1-oxohexan-2-yl)amino)-3-oxopropyl)-2-((S)-2-((2S,3S)-2-(3-(4-(2-benzylphenoxy)piperidin-1-yl)propanamido)-3-methylpentanamido)-3-hydroxypropanamido)succinamide] ({Propanoyl(3-Pip(4-O-2-BnPh))}-ISN[βAla]K(X1)-NH2), in that order: 5 nM and 8.33 ± 0.09.
For `CC(C)C[C@H](NC(=O)CCN1CCC(Oc2ccccc2Cc2ccccc2)CC1)C(=O)N[C@@H](CO)C(=O)N[C@@H](CC(N)=O)C(=O)NCCC(=O)N[C@@H](CCCCNC(=O)COc1ccc(/C=C/C2=[N+]3C(=Cc4ccc(-c5cccs5)n4[B-]3(F)F)C=C2)cc1)C(N)=O` [Compound 31j, (S)-N1-(3-(((S)-1-Amino-6-(2-(4-((E)-2-(5,5-difluoro-7-(thiophen-2-yl)-5H-5λ^4,6λ^4-dipyrrolo[1,2-c:2’,1’-f][1,3,2]diazaborinin-3-yl)vinyl)phenoxy)acetamido)-1-oxohexan-2-yl)amino)-3-oxopropyl)-2-((S)-2-((S)-2-(3-(4-(2-benzylphenoxy)piperidin-1-yl)propanamido)-4-methylpentanamido)-3-hydroxypropanamido)succinamide] ({Propanoyl(3-Pip(4-O-2-BnPh))}-LSN[βAla]K(X1)-NH2) the same measures were 6 nM and 8.23 ± 0.06.
In assay [1], `CC(C)[C@H](NC(=O)CCN1CCC(Oc2ccccc2Cc2ccccc2)CC1)C(=O)N[C@@H](CO)C(=O)N[C@@H](CC(N)=O)C(=O)NCCC(=O)N[C@@H](CCCCNC(=O)CCCCCNC(=O)COc1ccc(/C=C/C2=[N+]3C(=Cc4ccc(-c5cccs5)n4[B-]3(F)F)C=C2)cc1)C(N)=O` [Compound 38a, (S)-N^1-(3-(((S)-1-Amino-6-(6-(2-(4-((E)-2-(5,5-difluoro-7-(thiophen-2-yl)-5H-4λ^4,5λ^4-dipyrrolo[1,2-c:2’,1’-f][1,3,2]diazaborinin-3-yl)vinyl)phenoxy)acetamido)hexanamido)-1-oxohexan-2-yl)amino)-3-oxopropyl)-2-((S)-2-((S)-2-(3-(4-(2-benzylphenoxy)piperidin-1-yl)propanamido)-3-methylbutanamido)-3-hydroxypropanamido)succinamide] ({Propanoyl(3-Pip(4-O-2-BnPh))}-VSN[βAla]K([Ahx-X1])-NH2) showed a Kd of 18 nM and a pKD of 7.74 ± 0.06.
In assay [2], `CC(C)[C@H](NC(=O)CCN1CCC(Oc2ccccc2Cc2ccccc2)CC1)C(=O)NCC(=O)N[C@@H](C)C(=O)N[C@H](Cc1ccccc1)C(N)=O` [Compound 9a, (S)-N-(2-(((S)-1-(((R)-1-Amino-1-oxo-3-phenylpropan-2-yl)amino)-1-oxopropan-2-yl)amino)-2-oxoethyl)-2-(3-(4-(2-benzylphenoxy)piperidin-1-yl)propanamido)-3-methylbutanamide] ({Propanoyl(3-Pip(4-O-2-BnPh))}-VGA[dF]-NH2) showed a Ki of 501 nM and a pKi of 6.30 ± 0.07.
`CC(C)[C@H](NC(=O)CCN1CCC(Oc2ccccc2Cc2ccccc2)CC1)C(=O)N[C@@H](Cc1ccccc1)C(=O)N[C@@H](C)C(=O)N[C@H](Cc1ccccc1)C(N)=O` [Compound 9c, (S)-N-((S)-1-(((S)-1-(((R)-1-Amino-1-oxo-3-phenylpropan-2-yl)amino)-1-oxopropan-2-yl)amino)-1-oxo-3-phenylpropan-2-yl)-2-(3-(4-(2-benzylphenoxy)piperidin-1-yl)-propanamido)-3-methylbutanamide] ({Propanoyl(3-Pip(4-O-2-BnPh))}-VFA[dF]-NH2): in assay [2], the inhibition constant (Ki) was found to be 794 nM and the pKi is 6.10 ± 0.20.
For `C[C@H](NC(=O)[C@H](C)NC(=O)[C@H](Cc1ccc(O)cc1)NC(=O)CCN1CCC(Oc2ccccc2Cc2ccccc2)CC1)C(=O)N[C@H](Cc1ccccc1)C(N)=O` [Compound 8e, (S)-N-((S)-1-(((S)-1-(((R)-1-Amino-1-oxo-3-phenylpropan-2-yl)amino)-1-oxopropan-2-yl)amino)-1-oxopropan-2-yl)-2-(3-(4-(2-benzylphenoxy)piperidin-1-yl)propanamido)-3-(4-hydroxyphenyl)propanamide] ({Propanoyl(3-Pip(4-O-2-BnPh))}-YAA[dF]-NH2), in that order: 1180 nM and 5.93 ± 0.17.
For `CC(C)[C@H](NC(=O)CCN1CCC(Oc2ccccc2Cc2ccccc2)CC1)C(=O)N[C@@H](CO)C(=O)N[C@@H](Cc1ccc(O)cc1)C(=O)N[C@H](Cc1ccccc1)C(N)=O` [Compound 10d, (S)-N-((S)-1-(((S)-1-(((R)-1-Amino-1-oxo-3-phenylpropan-2-yl)amino)-3-(4-hydroxyphenyl)-1-oxopropan-2-yl)amino)-3-hydroxy-1-oxopropan-2-yl)-2-(3-(4-(2-benzylphenoxy)piperidin-1-yl)propanamido)-3-methylbutanamide] ({Propanoyl(3-Pip(4-O-2-BnPh))}-VSY[dF]-NH2) the same measures were 95 nM and 7.02 ± 0.08.
As for `C[C@H](NC(=O)[C@H](C)NC(=O)[C@H](CC(=O)O)NC(=O)CCN1CCC(Oc2ccccc2Cc2ccccc2)CC1)C(=O)N[C@H](Cc1ccccc1)C(N)=O` [Compound 8j, (S)-4-(((S)-1-(((S)-1-(((R)-1-Amino-1-oxo-3-phenylpropan-2-yl)amino)-1-oxopropan-2-yl)amino)-1-oxopropan-2-yl)amino)-3-(3-(4-(2-benzylphenoxy)piperidin-1-yl)propanamido)-4-oxobutanoic Acid] ({Propanoyl(3-Pip(4-O-2-BnPh))}-DAA[dF]-NH2), in assay [2], the Ki amounted to 1020 nM and the pKi was 5.99 ± 0.24.
On to `C[C@H](NC(=O)[C@H](C)NC(=O)[C@H](CO)NC(=O)CCN1CCC(Oc2ccccc2Cc2ccccc2)CC1)C(=O)N[C@H](Cc1ccccc1)C(N)=O` [Compound 8f, (S)-N-((S)-1-(((S)-1-(((R)-1-Amino-1-oxo-3-phenylpropan-2-yl)amino)-1-oxopropan-2-yl)amino)-1-oxopropan-2-yl)-2-(3-(4-(2-benzylphenoxy)piperidin-1-yl)propanamido)-3-hydroxypropanamide] ({Propanoyl(3-Pip(4-O-2-BnPh))}-SAA[dF]-NH2), for which, in assay [2], affinity was put at a Ki of 407 nM and the pKi is 6.39 ± 0.15.
For `CC(C)[C@H](NC(=O)CCN1CCC(Oc2ccccc2Cc2ccccc2)CC1)C(=O)N[C@@H](CC(=O)O)C(=O)N[C@@H](C)C(=O)N[C@H](Cc1ccccc1)C(N)=O` [Compound 9i, (S)-4-(((S)-1-(((R)-1-Amino-1-oxo-3-phenylpropan-2-yl)amino)-1-oxopropan-2-yl)amino)-3-((S)-2-(3-(4-(2-benzylphenoxy)piperidin-1-yl)propanamido)-3-methylbutanamido)-4-oxobutanoic Acid] ({Propanoyl(3-Pip(4-O-2-BnPh))}-VDA[dF]-NH2) the same measures were 550 nM and 6.26 ± 0.14.
